For this experiment, the target named is T1, Dihydrofolate reductase (DHFR) (Escherichia coli, UniProt P0ABQ4).
T1 construct: gift of Professor Eric Brown (McMaster University)
The experiment is classed as binding, E. coli. The following applies: for retention (elution) time: FIG. 19 Panel B, column with 50 pmol DHFR initial loading, compounds infused at 20 nM, fluorescein 100 nM; for elution time: first run. As for the experimental part: A second aqueous solution of 50 mM HEPES at pH 7.5 was prepared containing 16% (w/v) PEO (MW=10 000) and 0.6% (v/v) APTES. This aqueous solution also contained ca. 20 μM of DHFR. […] The mixture underwent spinodal decomposition (phase separation) in about 2-3 min followed by silica polymerization (˜10 min) to generate a hydrated macroporous monolithic column containing entrapped protein. After loading the sol-gel mixture, the monolithic columns were aged for a minimum of 5 days at 4 C and then cut into 10 cm lengths before use. In some cases, the APTES present in the columns was replaced with a final concentration of either 0.03% polyallylamine (PAM, MW 17,000) or 0.3% dimethyldimethoxysilane (DMDMS) to examine the effects of surface derivatization on non-selective retention.
Syringe pumps (Harvard Instruments PhD 2000) were used to deliver solutions, and a flow-switching valve was used to toggle between the assay buffer and the solution containing the compound mixture. This solution was then pumped through the column to achieve equilibrium. Effluent was combined with suitable organic modifiers to assist in the generation of a stable electrospray and detectability of the sprayed components using a triple-quadrupole MS system (Sciex API 3000). This configuration allows for maximum flexibility in compound introduction. Full operation of FAC-MS methods requires frequent flow switching between two solutions connected to the head of the column. An Upchurch microinjection valve allows syringe contents to be exchanged during operation. […] All other connections between components were achieved using fused silica tubing.
Before the first run, the column was flushed with 0.05 M NH4OAc buffer (pH 6.6, 100 mM NaCl) for 30 min at different flow rates (from 1 to 5 μL.min^−1) to remove any glycerol and non-entrapped protein and then equilibrated with 2 mM NH4OAc for 30 min at different flow rates (from 1 to 5 μL.min^−1). All compounds tested were present in 2 mM NH4OAc and were delivered at a rate of 5 μL.min^−1 using the syringe pump. The makeup flow (used to assist in the generation of a stable electrospray) consisted of methanol containing 10% (v/v) NH4OAc buffer (2 mM) and was delivered at 5 μL.min^−1.
In each case, the data were fit to the following equation:^17 [formula]
where V0 is the void volume (μL), V is the retention volume (μL), [A] is the analyte concentration (μM), Kd is the binding constant of the ligand to the protein (μM) and Bt is the total picomoles of active protein in the column.

The mark [1] stands for this setting: FIG. 21 Panel A, in 2 mM ammonium acetate.
Setting [2] is: FIG. 21 Panel B, second column cut from the same capillary, same infusion.

Where two headings read alike, the source gives them in different places.

The record followed here is patent publication US20040211730A1, “Methods and compounds for controlling the morphology and shrinkage of silica derived from polyol-modified silanes” (priority 2002, published 2004).

For `O=c1ccc2ccccc2o1` [coumarin], the “retention (elution) time” value was 2 min. Moreover, the “elution time” value under setting [1] was 2.7 min. For the same compound, the “elution time” value under setting [2] stood at 2.6 min.
For `Nc1nc2ncc(CNc3ccc(C(=O)N[C@@H](CCC(=O)O)C(=O)O)cc3)nc2c(=O)[nH]1` [folic acid] the same measures were 7 min, 8.9 min and 8.4 min.
